Source: patent publication US20150359763A1, “USE OF 3-BROMOPYRUVATE AS A CONTRACEPTIVE” (Board of Regents of the Nevada System of Higher Education, …, priority 2013, published 2015)
Where “and” joins values, the source holds several entries; their conditions need not be identical. Equal entries are not always repeated. Entries after “also recorded” stand apart in the source; their conditions may differ. Where two headings read alike, the source gives them in different places.

How the values were obtained:
[1] = test system: mouse cauda epididymal sperm; assay: Permanence of sperm immobilization: exposure in PBS, wash, activation in HTF, CASA; assay type: cell-based; details: for motility development after short exposure and washout / motility developed in HTF after exposure and washing: 37° C.; for motility development after short exposure and washout: 5 min, washed, HTF 30 and 60 minutes; for motility developed in HTF after exposure and washing: PBS with 1 mM 3-BrPA, 1-30 min, washed twice, HTF 30 min and 60 min
Protocol: Studies were then performed to determine if sperm-immobilizing effects of 3BP were permanent or transient. Mouse cauda epididymal sperm were collected into PBS (control), PBS containing 1 mM 3BP, PBS containing 1 mM deoxyglucose, PBS with 0.5 mM lonidamine and PBS with 1 mM oxythiamine, followed by incubation at 37° C. for 5 min. The compounds were then washed away with PBS and then the treated sperm were incubated in HTF medium for 30 minutes and 60 minutes, followed by measurement of sperm motility by CASA. […] Again, 3BP had the strongest effects. […] These studies indicate that the sperm motility-abolishing effect of 3BP was permanent. Further, once exposed, sperm will never be able to develop motility.
To determine if sperm exposed to 3BP could still be activated in HTF, mouse sperm from the cauda epididymis were collected into PBS (control) and PBS containing 1 mM 3-BrPA, respectively. Then sperm were incubated in 37° C. for 1, 5, 10, 20 and 30 min, respectively. To remove 3BP, the sperm were washed twice with PBS. The sperm were then transferred to the HTF medium and activated for 30 min (FIG. 5, A) and 60 min (FIG. 5, B), followed by measurement the sperm motility using CASA.

[2] = test system: mouse cauda epididymal sperm; assay: Mouse sperm motility in HTF with compound, measured by CASA; assay type: cell-based; details: for development of sperm motility: incubated 30 min and 60 min; for inhibition of sperm motility in vitro: HTF with 1 mM analog, 5 to 60 min
Protocol: Sperm motility requires energy, the sources of which include both glycolysis and mitochondrial activity. The effects of four glycolytic inhibitors (3-bromopyruvate, 2-deoxyglucose, lonidamin and oxythiamine) on sperm motility were evaluated. First mouse cauda epididymal sperm were collected into PBS, HTF (sperm-activating solution), HTF supplemented with 1 mM 3-Bromopyruvate, HTF containing 1 mM 2-Deoxyglucose, HTF with 0.5 mM Lonidamin and HTF with 1 MM Oxythiamine. Epididymal sperm can gain partial motility in PBS, but will never develop hyperactivated motility, which is required for sperm to be competent to fertilize eggs. On the other hand, when epididymal sperm are incubated in human tubular fluid (HTF) medium, which contains all of the sperm motility-activating factors, sperm will quickly develop hyperactivated motility and the motility peaks within 30 minutes and can last at least for several hours at 37° C. In the present studies, mouse cauda epididymal sperm were incubated in PBS, HTF and HTF supplemented with the 4 compounds for 30 min and 60 min. Sperm motility was then measured by Computer-Assisted Sperm Analysis (CASA). […] These studies indicate that in the presence of 3BP (at 1 mM), sperm cannot develop motility.
To determine how quickly 3BP could immobilize sperm, mouse cauda epididymal sperm were collected into HTF and HTF supplemented with 1 mM 3BP, respectively. Sperm were then incubated at 37° C. for 5, 10, 20 30, 40 and 60 min, respectively. Sperm motility was completely lost within 10 minutes at 1 mM concentration and the inhibitory effect appeared to be permanent (see FIG. 3).
Given that 3BP could immobilize sperm, it was determined if analogs of 3BP could have the same effect. Four 3BP analogs, including methyl-pyruvate, ethyl-pyruvate, isoamyl-pyruvate and propyl-pyruvate, were tested to determine if they also had the inhibitory effect on sperm in vitro. In the first study, the effects of methyl-pyruvate and ethyl-pyruvate on sperm motility were evaluated (FIG. 4A). Mouse epididymal sperm were collected into HTF (control), HTF containing 1 mM Methyl-pyruvate and HTF with 1 mM ethyl-pyruvate, respectively. After incubation at 37° C. for 5, 10, 20, 30, 40 and 60 min, sperm motility was measured using CASA.

[3] = test system: mouse cauda epididymal sperm; assay: as above; assay type: cell-based; details: 1 mM 3BP, activated mouse sperm (HTF 30 minutes, 37° C.)
sperm ATP production = assay: Sperm ATP content, Luciferase Bioluminescence Assay kit; assay type: cell-based; details: 1 mM 3BP, during 60 min activation by HTF
Protocol: The ATP production in sperm was measured with or without exposure to 1 mM 3BP during 60 min activation by HTF. Sperm ATP contents were measured using a Luciferase Bioluminescence Assay kit (FIG. 13). […] However, such a drastic suppression cannot be explained solely by its anti-glycolytic property because glycolysis provides only partial energy sperm motility requires.

[4] = test system: sperm mitochondrial membrane potential; assay: Sperm mitochondrial membrane potential, JC-1 assays; assay type: cell-based; details: 3BP 1 mM
Protocol: (§1) Whether 3BP could block mitochondrial activity in sperm was further examined because mitochondria also contribute energy production in sperm (FIG. 14). […] In control sperm trajectory tracking assays, the cauda epididymal sperm were collected into the HTF medium and incubated for 1, 5, 10 and 20 min (FIG. 15). In 3BP-treated sperm trajectory tracking assays, the cauda epididymal sperm were collected HTF+1 mM 3-BrPA and incubated for 1, 5, 10 and 20 min (FIG. 15). In control human sperm trajectory tracking assays, the human “swim-up” sperm were incubated HTF for 1, 5, 10, and 20 minutes (FIG. 16). In 3BP-treated human sperm movie clips, the human “swim-up” sperm were incubated in HTF+1 mM 3-BrPA for 1, 5, 10 and 20 minutes (FIG. 16). Further, the histology of the vagina and uterus in female mice that received daily intravaginal application of 3BP (200-400 ul lubricant containing 20 mM 3BP) for 3 months was accessed.

mouse epididymal sperm = assay: EC50 and EC100 for immobilizing mouse sperm within 20 seconds of contact, CASA; assay type: cell-based
Protocol: (§2) To determine at what concentrations 3BP can block the motility of 50% and 100% of the total motile sperm, mouse epididymal sperm were collected into PBS (pH 7.5) and then transferred to pre-warmed (37° C.) HTF medium containing serial dilutions of 3BP (pH 7.5) at concentrations ranging from 10 to 130 mM with a 10 mM increment. Motility was measured using CASA upon 20 seconds of contact with 3BP. […] Therefore, the 3BP EC50 is ˜40˜50 mM and EC100 is ˜100 mM for mouse epididymal sperm at pH 7.5 (FIG. 9). Similarly, the EC50 and EC100 of 3BP in immobilizing human sperm were determined. Human “swim-up” sperm were added to HTF containing 3BP at increasing concentrations ranging from 100 mM to 210 mM at pH 7.5. Sperm motility was measured upon 20 seconds of contact using CASA. […] However, the vaginal environment tends to be acidic (˜pH 5.0) and the effectiveness of 3BP in immobilizing sperm was further evaluated when pH was set at ˜5.0 (FIGS. 10 and 12).

human semen = assay: Sperm motility in liquidified human semen with 3BP; assay type: cell-based; details: 1 mM 3BP added directly to liquidified semen, 37° C.
Protocol: To evaluate the effect of 3BP on sperm motility in human semen, human semen was liquidified under room temperature and 3BP was directly added into the liquidified semen at a concentration of 1 mM followed by incubation at 37° C. for 1, 5, 10, 20 and 30 minutes (FIGS. 7 and 8). These studies indicate that 3BP can completely abolish human sperm motility within 5 minutes of contact.

human "swim-up" sperm [5] = assay: Motility of human swim-up sperm exposed to 3BP, CASA; assay type: cell-based; details: 1 mM 3BP
Protocol: In normal men in their reproductive ages, ˜30-40% of sperm in human ejaculates are immotile or display weak motility. A ‘swim-up” procedure allows motile sperm to be enriched. To see the potential of 3BP in suppressing sperm motility, the swim-up procedure was first performed to allow the collection of motile sperm and then the motile human sperm were exposed to 3BP to determine if their motility could be abolished. The human semen was left at room temperature for 30 minutes for liquidification and then 2˜3 ml pre-warmed HTF medium were added followed by centrifugation at 1,500 rpm for 5 min. The sperm pellets were resuspended in 1 ml pre-warmed HTF medium and then incubated at 37° C. in anincubator for 60 min. Motile sperm will “swim up” and stay in the upper portion of the medium, in which motile sperm are enriched in. The “swim-up” sperm were collected, 3BP added at a concentration of 1 mM, and the sperm were incubated for 1, 5, 10, 20 and 30 min at 37° C., respectively. Sperm motility was then measured using CASA (FIG. 6).

[6] = test system: vagina and uterus in female mice; assay: Histology of vagina and uterus after daily intravaginal application; assay type: in vivo; details: daily intravaginal 200-400 ul lubricant containing 20 mM 3BP, 3 months
Protocol: as §1

human "swim-up" sperm [7] = assay: EC50 and EC100 for immobilizing human sperm within 20 seconds of contact, CASA; assay type: cell-based; details: for EC50: read-out: EC50 (50% of motile sperm immobilized within 20 seconds of contact)
Protocol: as §2

Compound: O=CC[C@@H](O)[C@H](O)[C@H](O)CO [2-deoxyglucose, reference compound]
- motility development after short exposure and washout ([1]; PBS with 1 mM compound): will permanently impair motility development
- development of sperm motility ([2]; HTF with 1 mM compound): appeared to inhibit the development of sperm motility

Compound: O=C(O)C(=O)CBr [3BP, 3-bromo-2-oxopropanoic acid]
- exposure time to permanent immobilization with complete loss of motility [3]: less than 1 minute
- sperm ATP production (sperm ATP production): can effectively block sperm ATP production
- sperm mitochondrial membrane potential [4]: inhibition of sperm mitochondrial membrane potential; also recorded: could inhibit the mitochondrial membrane potential
- EC100 (100% of motile sperm immobilized within 20 seconds of contact) (mouse epididymal sperm; pH 4.8): ~17 mM
- EC50 (mouse epididymal sperm; pH 4.8, read-out: EC50 (50% of motile sperm immobilized within 20 seconds of contact)): ~5 mM
- EC100 (100% of motile sperm immobilized within 20 seconds of contact) (mouse epididymal sperm; pH 7.5): ~100 mM
- EC50 (mouse epididymal sperm; pH 7.5, read-out: EC50 (50% of motile sperm immobilized within 20 seconds of contact)): 40 to 50 mM
- time to completely abolish human sperm motility (human semen): ≤ 5 min
- exposure time to permanent immobilization with complete loss of motility ([1]; 1 mM 3BP, murine non-activated sperm collected from the epididymis into physiological saline): less than 1 minute
- motility developed in HTF after exposure and washing [1]: irreversible
- motility developed in HTF after exposure and washing ([1]; listed as 3-BrPA): No motility was developed
- motility development after short exposure and washout ([1]; PBS with 1 mM compound): permanent; also recorded: could not develop motility
- time to abolish motility of motile human sperm (human "swim-up" sperm [5]; 37° C., swim-up sperm in HTF): 1 to 5 min
- exposure time to permanent immobilization with complete loss of motility (human "swim-up" sperm [5]; activated human sperm (HTF 30 minutes, 37° C.)): less than 1 minute
- time to complete loss of sperm motility ([2]; HTF with 1 mM 3BP, 37° C.): ≤ 10 min
- development of sperm motility ([2]; HTF with 1 mM compound): almost completely blocked the development of sperm motility
- histology of the vagina and uterus [6]: no significant changes in the histology; also recorded: No discernible pathological changes were observed
- EC50 (human "swim-up" sperm [7]; Homo sapiens, Sperm, pH 5, human sperm, pH 5.0): 14 mM
- EC100 (100% of motile sperm immobilized within 20 seconds of contact) (human "swim-up" sperm [7]; human sperm, pH 5.0): 23 mM and ~24 mM
- EC50 (human "swim-up" sperm [7]; human sperm, pH 5.0): ~13 mM
- EC100 (100% of motile sperm immobilized within 20 seconds of contact) (human "swim-up" sperm [7]; human sperm, pH 7.5): ~200 mM

Compound: CCOC(=O)C(C)=O [ethyl-pyruvate]
- inhibition of sperm motility in vitro ([2]; 37° C.): None of the treatments resulted in inhibition of sperm motility
- inhibition of sperm motility in vitro ([2]; 37° C., listed as ethyl pyruvate): no effect on sperm motility

Compound: CC(=O)C(=O)OCCC(C)C [isoamyl-pyruvate]
- inhibition of sperm motility in vitro ([2]; 37° C.): no effect on sperm motility

Compound: O=C(O)c1nn(Cc2ccc(Cl)cc2Cl)c2ccccc12 [lonidamin, reference compound]
- motility development after short exposure and washout ([1]; PBS with 0.5 mM lonidamine): will permanently impair motility development
- development of sperm motility ([2]; HTF with 0.5 mM Lonidamin): appeared to inhibit the development of sperm motility

Compound: Cc1ncc(C[n+]2csc(CCO)c2C)c(=O)[nH]1 [oxythiamine, reference compound]
- motility development after short exposure and washout ([1]; PBS with 1 mM compound): will permanently impair motility development
- development of sperm motility ([2]; HTF with 1 mM compound): appeared to inhibit the development of sperm motility

Compound: CCCOC(=O)C(C)=O [propyl-pyruvate]
- inhibition of sperm motility in vitro ([2]; 37° C.): no effect on sperm motility
